The values that follow come from patent publication US20230158032A1, “PHARMACEUTICAL COMBINATION FOR THE TREATMENT OF MYELOPROLIFERATIVE NEOPLASMS” (Universitätsklinikum Jena, priority 2020, published 2023).

“Also recorded” adds a separate entry of the source. Where two headings read alike, the source gives them in different places.

Holding throughout (assay type): cell-based
For one assay, the system named is murine Jak2 V617F cells. The experiment in a line: MTS growth and proliferation assay of splicing factor inhibitors with and without Ruxolitinib. Conditions: for IC50: read-out: IC50, concentration of functional inhibitor needed to inhibit cell growth of 50%; for effect between the functional inhibitor and Ruxolitinib on cell growth inhibition: combination with Ruxolitinib (0.5 μM). As to the method: Growth and proliferation was measured by MTS assay. Data shown are representative of 2 independent experiments with 8 technical replicates, mean±SD. The used splicing factor inhibitors are: a) GSK3326595, a Prmt5 inhibitor; b) Indisulam, a Rbm39 inhibitor; c) Herboxidiene; d) Pladienolide B.
The plates were read at 490 nm in Tecan Infinite M200 and the responses were analyzed using Graph Pad Prism.
After 72 hours, the incubation was stopped and growth measured by MTS assay.

Another assay deals with Ybx1 pS30 and pS34. In words: Drug-perturbed phosphoproteome profiling of Ybx1 phosphosites. Conditions: 10 μM for 1 hour, murine Jak2V617F BaF3. An excerpt:
The size and colour of the dots are proportional to the phosphosite intensity, Z-scored (log 2 intensity).
The cells were lysed in Gmdcl buffer and processed as mentioned in the phospho-proteome sample preparation protocol.

The test system of assay [1] is primary human Jak2-mutated cells. The experiment in a line: Phosphoproteome of primary patient samples after Jak-i exposure. Conditions: in vitro and in vivo exposure, 2 hours.
Protocol: In brief, peripheral blood samples from patients with Jak2 mutated myeloproliferative neoplasms were collected, granulocytes isolated, and treated with DMSO or Ruxolitinb 0.5 μM for 2 hours (either in vitro or in vivo). Cells were lysed and processed in 4% SDC buffer (4% SDC, 100 mM Tris pH8.5, 10 mM TCEP and 40 mM CAA), heated for 5 mins at 95° C. and cooled on ice for 15 min. Lysed samples were sonicated, heated again for 5 mins and BCA quantified. Approximately 350 μg of proteins were digested with LysC and Trypsin overnight at room temperature and phosphopeptides were enriched by TiO2 beads as described elsewhere.
The mark [2] stands for this setting: Mus musculus, 72 h, in the presence of Ruxolitinib (0.5 μM), 72 hours, MTS.
Where [3] appears, read: functional inhibitor alone, 72 hours, MTS.
[4] abbreviates: in the presence of Ruxolitinib (0.5 μM), 72 hours, MTS.

Turning to `CC(=O)N1CCC(Nc2cc(C(=O)NC[C@H](O)CN3CCc4ccccc4C3)ncn2)CC1` [GSK3326595], the IC50 amounted to 1000 nM with murine Jak2 V617F cells (Mus musculus, 72 h, functional inhibitor alone, 72 hours, MTS) and 4 nM in the assay on murine Jak2 V617F cells (setting [2]). The “effect between the functional inhibitor and Ruxolitinib on cell growth inhibition” value with murine Jak2 V617F cells is reported as “synergistic effect”.

As for `CO[C@H]([C@@H](C)[C@H]1O[C@]1(C)C[C@H](C)/C=C/C=C(\C)[C@H]1O[C@@H](CC(=O)O)CC[C@@H]1C)[C@@H](C)O` [Herboxidiene], the “effect between the functional inhibitor and Ruxolitinib on cell growth inhibition” value in the assay on murine Jak2 V617F cells is “synergistic effect”. Besides, the IC50 with murine Jak2 V617F cells (setting [3]) is around 16 nM; in the assay on murine Jak2 V617F cells (setting [4]) it was around 8 nM.

Consider `NS(=O)(=O)c1ccc(S(=O)(=O)Nc2cccc3c(Cl)c[nH]c23)cc1` [Indisulam], for which the IC50 in the assay with murine Jak2 V617F cells (setting [2]) amounted to 500 nM. Further, the “effect between the functional inhibitor and Ruxolitinib on cell growth inhibition” value with murine Jak2 V617F cells is on record as “synergistic effect”. Moreover, the “50% inhibition of cell growth reached or not” value in the assay with murine Jak2 V617F cells (setting [3]) is listed as “not able to reach a 50% inhibition of cell growth”.

Turning to `O=C(NOC[C@H](O)CO)c1ccc(F)c(F)c1Nc1ccc(I)cc1F` [PD0325901], in the assay with Ybx1 pS30 and pS34, the “Ybx1 phosphorylation at pS30 and pS34” value is “responsive; also recorded: able to inhibit”.

Turning to `N#CC[C@H](C1CCCC1)n1cc(-c2ncnc3[nH]ccc23)cn1` [Ruxolitinib], the phosphosites significantly altered in assay [1] is recorded as 618 phosphosites.

In the case of Pladienolide B, the “effect between the functional inhibitor and Ruxolitinib on cell growth inhibition” value in the assay with murine Jak2 V617F cells is “synergistic effect”. The values for the IC50 with murine Jak2 V617F cells (setting [3]) and with murine Jak2 V617F cells (setting [4]) were around 15 nM and around 7 nM, respectively.
